Assay results as given in patent US10227591B2, “Modulation of human cytomegalovirus replication by micro-RNA 132 (miR132), micro-RNA 145 (miR145) and micro-RNA 212 (miR212)” (priority 2009, dated 2019).

What was measured:
HCMV [1] = assay: HCMV virus release by plaque assay after antisense miR132 LNA transfection; format: cell-based; details: for viral replication (virus release, viral proteins IE2, pp65, gB55): summary statement in the description, transfection of cells
Experimental: (§1) To determine the role of miR132 on HCMV replication, HEL cells were transfected with antisense miR132 LNA, and were infected with HCMV. The amount of virus released from infected cells was quantitated by plaque assay, and viral protein accumulation was analyzed by Western blot of protein lysates from infected cells. […] Taken together with the previous data, this experiment confirms that miR132 is necessary for efficient HCMV replication, and that HCMV replication can be effectively attenuated by inhibition of miR132.

[2] = test system: HCMV proteins IE2, pp65, gB55; assay: HCMV viral protein accumulation by Western blot after antisense miR132 LNA transfection; format: cell-based; details: HEL cells transfected, infected with HCMV; versus control LNA
Experimental: as §1

MeCP2 = MeCP2 protein Western blot after transfection with miR132 or miR212 LNA; format: cell-based, Human; details: HEL cells transfected with 500 pmol LNA; nuclear enriched extracts; versus scramble LNA
From the text: In order to assess the role of miR132 and miR212 in virus replication, miR132 and miR212 were inhibited using antisense locked nucleic acid (LNA) oligonucleotides targeting miR132 or miR212 Inhibition of miR132 and/or miR212 in this way counteracts the increase in miR132 or miR212 expression that occurs during HCMV infection. To test the efficacy of the LNAs, HEL cells were transfected with 500 pmol of scramble, miR132, or miR212 specific locked nucleic acid (Exiqon) to inhibit miRNA function. Nuclear enriched extracts were prepared, and protein levels were determined by Western blot.

HCMV [3] = assay: HCMV viral titers in supernatants by plaque assay after miR145 mimic transfection; format: cell-based
Experimental: This experiment was performed to determine whether altered regulation of miR145 following viral infection affects viral replication. HEL fibroblasts were transfected with either a control (ct) miRNA or a miR145 mimic (145) (Dharmacon). The cells were infected with HCMV (MOI=1) 24 hours after transfection. Supernatants were collected at 24, 48, 72, 96, 120 and 144 hpi and examined for viral titers by plaque assay. […] A 10-fold difference can be observed from 72 to 96 hpi. At 144 hpi, viral titers are similar in the control and miR145 mimic transfected cells. […] This is consistent with the hypothesis that downregulation of miR145 contributes to HCMV pathogenesis by enhancing its replication.

[4] = test system: HCMV proteins IE2, pp65, gB55, IE1; assay: HCMV viral protein expression by western blot after miR145 mimic transfection; format: cell-based; details: HEL fibroblasts, HCMV MOI=1, 24-144 hpi; compared to control miRNA
Experimental: These experiments were performed to establish the role of miR145 on HCMV protein expression. HEL fibroblasts were transfected with either a control miRNA or miR145 mimic (Dharmacon). The cells were infected with HCMV (MOI=1) 24 hours after transfection. Cell pellets were collected at 24, 48, 72, 96, 120 and 144 hpi, lysed and examined for viral protein expression by western blot.

IRS-1 = IRS-1 protein Western blot after transfection with miR145 mimic; format: cell-based, Human; details: HEL fibroblasts; 48, 72 and 96 hours post transfection; compared to control miRNA transfected cells
Experimental: This experiment was performed to determine whether a miR145 mimic targets Insulin Receptor Substrate-1 (IRS-1) mRNA, which is a target of miR145, in HEL fibroblasts. HEL fibroblasts were transfected with either a control miRNA (ct) or miR145 mimic (145) (Dharmacon). Cell pellets were collected at 24, 48, 72 and 96 hours post transfection and lysed. Western blot was performed using an anti IRS-1 antibody (Upstate Biothechnology). Actin is shown as a loading control. […] This downregulation is not observed in the cells transfected with a control miRNA, or the mock-transfected cells.

Substance | decrease in virus replication (HCMV [1]; HEL cells transfected, then infected with HCMV, virus release and viral protein expression) [fold] | viral replication (virus release, viral proteins IE2, pp65, gB55) (HCMV [1]) | expression of viral protein IE2 [2] | expression of viral protein gB55 [2] | expression of viral protein pp65 [2] | MeCP2 protein levels (MeCP2) | viral titers in the supernatants (HCMV [3]; HEL fibroblasts transfected 24 h before HCMV infection (MOI=1), compared to control miRNA) | viral titers versus control (HCMV [3]; HEL fibroblasts, HCMV MOI=1, at 144 hpi) | difference in viral titers (HCMV [3]; HEL fibroblasts, HCMV MOI=1, from 72 to 96 hpi, versus control miRNA) [fold] | reduction in viral titers (HCMV [3]; fibroblast cells transfected, subsequently infected with HCMV) [log] | IE1 levels [4] | levels of the Early (E) protein pp65 [4] | levels of the Immediate Early (IE) 2 protein [4] | levels of the Late (L) protein gB55 [4] | IRS-1 protein level (IRS-1)
miR132 LNA: miR132 specific antisense locked nucleic acid (Exiqon); exemplary sequence 5' CGACCATGGCTGTAGACTGTTA 3' (SEQ ID NO:13) (antisense CGACCATGGCTGTAGACTGTTA; LNA-modified antisense, pattern not given here) | 3 | attenuates viral replication | reduced | reduced | reduced | modest increase |  |  |  |  |  |  |  |  | 
miR145 mimic: miR145 mimic (Dharmacon) transfected into HEL fibroblasts; mimics mature miR145 (SEQ ID NO:2) (GUCCAGUUUUCCCAGGAAUCCCU; mimic duplex, passenger strand not given here; listed as Homo sapiens) |  |  |  |  |  |  | decreased viral titers | similar | 10 | > 1 | Increased IE1 levels | Decreased levels | Decreased levels | Decreased levels | Downregulation
miR212 LNA: miR212 specific antisense locked nucleic acid (Exiqon); exemplary sequence 5' GGCCGTGACTGGAGACTGTTA 3' (SEQ ID NO:14) (LNA-modified antisense, pattern not given here) |  | attenuates viral replication |  |  |  | modest increase |  |  |  |  |  |  |  |  | 
